{"source": "patent US20210299079A1", "about": "“MONOMETHYL FUMARATE-CARRIER CONJUGATES AND METHODS OF THEIR USE” (Flagship Pioneering Innovations V, Inc., priority 2018, published 2021)", "assay_type_in_all_cases": "cell-based", "key": {"[1]": {"test_system": "MIP-1α", "assay": "Neutrophil Chemokine Production Assay: MIP-1α", "settings": "human neutrophils, 12 h", "method_in_brief": "(§1)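 Neutrophils were isolated from human blood by Histopaque-1077 separation and RBC lysis, then plated at 2.0×10^5 cells/well in RPMI complete. Cells were stimulated with LPS (10 μL of a 2 μg/mL solution) for 12 h at 37 °C. Supernatant chemokines were measured by Luminex multiplex, averaging three data points from two donors.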"}, "[2]": {"test_system": "Caco-2 colonocytes", "assay": "Human Caco-2 Barrier Integrity Assay, Study 1", "settings": "Caco-2, + cytokines (TNFα, IFNγ, IL-1β), 48 hours", "protocol": "Caco-2 colonocytes were maintained at 37° C. and 5% CO2 in Dulbecco's Modified Eagle Medium (DMEM) and supplemented with 10% FBS, 1% NEAA, 1% penicillin-streptomycin. At 70-80% confluency, cells were trypsinized and seeded in 0.4 cm^2 transwell collagen I coated membranes with supplemented DMEM in both apical and basolateral compartments. […] After 48 hours, TEER readings were taken again and viability was measured by CellTiter 96® AQueous One Solution Cell Proliferation Assay (Promega)."}, "[3]": {"test_system": "IL-1β", "assay": "Cytokine Release from Human PBMCs: IL-1β", "settings": "LPS, 24 hours, Concentration 100 μM", "protocol": "(§2) Human donor blood (8 mL) was collected in sodium citrate CPT tubes and centrifuged at 1,600×g for 20 minutes at room temperature. Buffy coat containing PBMCs was collected and transferred to a 50 mL conical tube containing 30 mL of RPMI-1640 medium at room temperature (supplemented with penicillin-streptomycin). PBMCs samples were centrifuged at 400×g for 10 minutes at 10° C. The pelleted PBMCs were washed twice in 10 ml of RPMI-1640 medium (supplemented with penicillin-streptomycin), then resuspended in RPMI-1640 medium (supplemented with penicillin-streptomycin, fetal bovine serum, and L-Glutamine). PBMCs were filtered through a 70 micron mesh to remove any cellular debris. […] PBMCs in a 96-well plate were rested for 30 minutes in a 37° C., 5% CO2 incubator, then subsequently treated with 10 μI of indicated compound. After 2 hours 10 μL of LPS (0111:64) 1 mg/mL was added to test wells. After 24 hours of incubation at 37° C., 5% CO2, 100 μL of cell supernatant was collected and transferred to a 96-well plate (non-tissue treated, flat bottom). The plate was centrifuged at 350×g for 5 minutes at room temperature, and then the clear supernatant transferred to a new 96-well plate (non-tissue treated, flat bottom). The remaining cells were tested for viability using CellTiter-Glo® Luminescent Cell Viability Assay (Promega). The supernatant was analyzed for TNFα, IL-6 and IL-1β (kit […] Systems), using Luminex Immunoassay Technology (MAGPIX System)."}, "[4]": {"test_system": "IL-6", "assay": "Cytokine Release from Human PBMCs: IL-6", "settings": "LPS, 24 hours, Concentration 100 μM", "protocol": "as §2"}, "[5]": {"test_system": "TNFα", "assay": "Cytokine Release from Human PBMCs: TNFα", "settings": "LPS, 24 hours, Concentration 100 μM", "protocol": "as §2"}, "[6]": {"test_system": "IL-8", "assay": "Neutrophil Chemokine Production Assay: IL-8", "settings": "human neutrophils, 12 h", "method_in_brief": "as §1"}}, "data": [{"smiles": "CCC(=O)O", "note": "[propionate]", "values": [{"measurement": "% MIP-1α (Vehicle + LPS = 100%)", "setting": "[1]; Conc. 500.0 μM", "value": "+++ (+++ = <50% Vehicle)"}, {"measurement": "% MIP-1α (Vehicle + LPS = 100%)", "setting": "[1]; Conc. 1000.0 μM", "value": "+++ (+++ = <50% Vehicle)"}, {"measurement": "% MIP-1α (Vehicle + LPS = 100%)", "setting": "[1]; Conc. 3000.0 μM", "value": "+++ (+++ = <50% Vehicle)"}, {"measurement": "% Change in TEER from DMSO", "setting": "[2]; 1 mM", "value": "+ (125% > <150%: +)"}, {"measurement": "% Change in TEER from DMSO", "setting": "[2]; 3 mM", "value": "++ (150% > <200%: ++)"}, {"measurement": "IL1β % DMSO control", "setting": "[3]", "value": "+ ((+) 50% > <90% DMSO)"}, {"measurement": "IL6 % DMSO control", "setting": "[4]", "value": "+ ((+) 50% > <90% DMSO)"}, {"measurement": "TNFα % of DMSO control", "setting": "[5]", "value": "+ ((+) 50% > <90% DMSO)"}, {"measurement": "% IL-8 (Vehicle + LPS = 100%)", "setting": "[6]; Conc. 500.0 μM", "value": "− (− = >90% Vehicle)"}, {"measurement": "% IL-8 (Vehicle + LPS = 100%)", "setting": "[6]; Conc. 1000.0 μM", "value": "++ (++ = <70% Vehicle)"}, {"measurement": "% IL-8 (Vehicle + LPS = 100%)", "setting": "[6]; Conc. 3000.0 μM", "value": "+++ (+++ = <50% Vehicle)"}]}]}
